2 molecules from patent US9580498B2, “Monoclonal antibody for antagonizing and inhibiting binding of vascular endothelial growth factor to its receptor, and coding sequence” (SUZHOU STAINWEI BIOTECH INC., priority 2012, dated 2017) can be followed below.

Holding throughout (assay type): in vivo
One assay deals with human HCT-8 colon cancer. Kind of assay: Transplanted human HCT-8 colon cancer in nude mice. The note with it: 5 mg/kg i.p. twice a week for 4 weeks; day 30. An excerpt:
The establishing method is basically the same as that in Example 10.
Observing the tumor growth of the nude mice inoculated with the human HCT-8 colon cancer and, when the tumor volume is about 50-100 mm^3, screening according to the size of the tumor volume, with the too large tumor and minor tumor not selected.
The above nude mice inoculated with human HCT-8 colon cancer were divided into the following seven groups (8 mice/group) for administration, intraperitoneally injecting twice a week successively for 4 weeks, and ending the test on the 30th day (D30).
(§1) At the end of experiment, tumors were removed after euthanasia, and the tumor weight were measured. The treatment effect was measured by the ratio of tumor size in the testing group (T) versus the control group (C), i.e. T/C %.
After the first treatment, the long and short diameters of the tumor were measured twice a week, and the tumor volume V and the relative tumor volume RTV thereof (Vt/VO) were calculated
At day 30, each animal was euthanized, and its tumor was removed and weighted and the average tumor weight in each group was calculated.

Assay [1] concerns human A673 rhabdomyosarcoma. Kind of assay: Transplanted human A673 rhabdomyosarcoma in nude mice. The note with it: 5 mg/kg i.p. twice a week for 3 weeks; day 22.
Description: The establishment of this tumor method is basically the same as that in Example 10.
Nude mice were inoculated with human A673 rhabdomyosarcoma. When the tumor volume reached about 50-100 mm^3, a screening was done and those mice bearing tumors too small or too large in size were excluded. The selected mice were then randomly divided into different groups for different doses of drugs
Dividing the above nude mice inoculated with the human A673 rhabdomyosarcoma into the following six groups (6 mice/group) for administration, intraperitoneally injecting twice a week successively for 3 weeks, and ending the test on the 22nd day (D22).
as §1
(§2) After the first administration, the long and short diameters of the tumor were measured twice a week, and the tumor volume (V) and the relative tumor volume RTV thereof (Vt/VO) were calculated.
At day 22, each animal was euthanized, and its tumor was removed and weighted and the average tumor weight in each group was calculated.

The subject of assay [2] is human MDA-MB-231 breast cancer. As to the kind of experiment: Transplanted human MDA-MB-231 breast cancer in nude mice. Conditions: 5 mg/kg i.p. twice a week for 5 weeks; day 36.
Description: The tumor model establishment is basically the same as that in Example 10.
Nude mice were inoculated with human MDA-MB-231 breast cancer. When the tumor volume reached about 50-100 mm^3, a screening was done and those mice bearing tumors too small or too large in size were excluded. The selected mice were then randomly divided into different groups for different doses of drugs
The above nude mice inoculated with human MDA-MB-231 breast cancer were divided into the following five treatment groups (7 mice/group). Antibodies were injected intraperitoneally twice a week for 5 weeks, and ending the test on the 36th day (D36).
as §1, §2
At day 36, each animal was euthanized, and its tumor was removed and weighted and the average tumor weight in each group was calculated.

Assay [3] has as its system human Ls-174-T colon cancer. As to the kind of experiment: Transplanted human Ls-174-T colon cancer in nude mice. The note with it: 5 mg/kg i.p. twice a week for 4 weeks; day 29. On the procedure:
Two nude mice were prepared to serve as tumor bearing mice. 1×10^7 of human Ls-174-T colon cancer cells (purchased from Cell Preservation Center of Shanghai Institutes for Biological Sciences, Chinese Academy of Sciences) at the log-growth cycle, or tumor mass in a size of about 1.5 mm^3, were inoculated subcutaneously into the right armpit of these two nude mice. […]
as §1
After the first administration, both the long and short diameters of tumors were recorded twice a week, and tumor volume (V) and the relative tumor volume (RTV) were calculated. The calculation formula for RTV is: RTV=Vt/Vo, where Vt is the tumor volume measured at each time point (day), and Vo is the initial (before administration) tumor volume.
At day 29, each animal was euthanized, and its tumor was removed and weighted and the average tumor weight in each group was calculated.

As to `N.N.[Cl][Pt][Cl]` [cisplatin, reference compound], in the assay on human HCT-8 colon cancer, the average tumor weight amounted to 1.201 g and the “tumor weight inhibition rate” value stood at 25.29%.
As to “Avastin: humanized anti-VEGF monoclonal antibody drug developed and produced by Roche/Genentech [reference compound]”, the average tumor weight in assay [1] worked out at 3.323 g; in assay [2] it was 0.543 g; in assay [3], 0.767 g. Further, the results for the “tumor weight inhibition rate” value in assay [1], in assay [2] and in assay [3] were 61.92%, 38.99% and 74.05%, respectively.
